Values of other authors as cited in patent US12728103B2, “Pharmaceutical composition comprising mitotane administered orally for treatment of adrenocortical carcinoma and Cushing's syndrome” (priority 2019, dated 2026).

- concentration in fat relative to plasma (accumulation in fat): ~200 times
- product found in the faeces in an unmetabolized form (humans, conventional tablet): 60%
- treatment time to reach the effective plasma concentration (patients, average): 3 months
Structure (SMILES): Clc1ccc(C(c2ccccc2Cl)C(Cl)Cl)cc1 (centres unmarked) [Mitotane, ortho,para'dichloro-diphenyl-dichloroethane]
- mitotaemia at which neurological disorders (ataxia, depressive syndrome) occur (patients): exceeds 20 mg/L
- plasma concentration to be reached to be effective (patients): at least 14 mg/L
